# According to patent US10334829B2, “IMiD screening methods IMiD-sensitive cells with mutant CRBN” (THE BROAD INSTITUTE, INC., priority 2013, dated 2019):
# Entries after “also recorded” stand apart in the source; their conditions may differ. Residues, ends and D or L forms follow the SMILES beside them. *: point of attachment. Cbz = O=C(OCc1ccccc1)*
# Assays:
# CSNK1A1 [1] = target: T1, CSNK1A1 (Homo sapiens, UniProt P48729+Q96SW2); assay: Immunoblot of CSNK1A1 (CK1α) protein in human cell lines; type: cell-based; details: KG-1 cells, 6 hours
# T1 construct: endogenous in cells; host or cells: KG-1
# T1 sequence (P48729 whole entry): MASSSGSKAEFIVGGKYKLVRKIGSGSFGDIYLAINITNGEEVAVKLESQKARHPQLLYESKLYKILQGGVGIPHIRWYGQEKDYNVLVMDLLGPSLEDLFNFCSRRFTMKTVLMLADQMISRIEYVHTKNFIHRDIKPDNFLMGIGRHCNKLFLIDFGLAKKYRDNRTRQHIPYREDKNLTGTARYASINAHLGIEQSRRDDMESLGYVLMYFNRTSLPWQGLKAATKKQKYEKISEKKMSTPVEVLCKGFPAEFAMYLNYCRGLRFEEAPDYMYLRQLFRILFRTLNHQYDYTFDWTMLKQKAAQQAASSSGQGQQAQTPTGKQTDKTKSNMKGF
# T1 sequence (Q96SW2 whole entry): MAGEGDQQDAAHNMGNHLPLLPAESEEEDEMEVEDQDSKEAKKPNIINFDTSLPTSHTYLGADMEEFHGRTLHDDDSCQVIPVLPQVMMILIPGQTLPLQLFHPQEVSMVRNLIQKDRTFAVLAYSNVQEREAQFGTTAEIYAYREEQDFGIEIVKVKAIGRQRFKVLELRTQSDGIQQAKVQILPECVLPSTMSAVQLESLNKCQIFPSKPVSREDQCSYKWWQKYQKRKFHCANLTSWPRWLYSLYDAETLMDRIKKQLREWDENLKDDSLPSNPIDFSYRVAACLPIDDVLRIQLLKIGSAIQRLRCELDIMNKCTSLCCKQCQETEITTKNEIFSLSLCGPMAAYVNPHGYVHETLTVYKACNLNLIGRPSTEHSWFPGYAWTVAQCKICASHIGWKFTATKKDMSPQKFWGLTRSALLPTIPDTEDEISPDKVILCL
# T1 sequence (Q16531 whole entry partner): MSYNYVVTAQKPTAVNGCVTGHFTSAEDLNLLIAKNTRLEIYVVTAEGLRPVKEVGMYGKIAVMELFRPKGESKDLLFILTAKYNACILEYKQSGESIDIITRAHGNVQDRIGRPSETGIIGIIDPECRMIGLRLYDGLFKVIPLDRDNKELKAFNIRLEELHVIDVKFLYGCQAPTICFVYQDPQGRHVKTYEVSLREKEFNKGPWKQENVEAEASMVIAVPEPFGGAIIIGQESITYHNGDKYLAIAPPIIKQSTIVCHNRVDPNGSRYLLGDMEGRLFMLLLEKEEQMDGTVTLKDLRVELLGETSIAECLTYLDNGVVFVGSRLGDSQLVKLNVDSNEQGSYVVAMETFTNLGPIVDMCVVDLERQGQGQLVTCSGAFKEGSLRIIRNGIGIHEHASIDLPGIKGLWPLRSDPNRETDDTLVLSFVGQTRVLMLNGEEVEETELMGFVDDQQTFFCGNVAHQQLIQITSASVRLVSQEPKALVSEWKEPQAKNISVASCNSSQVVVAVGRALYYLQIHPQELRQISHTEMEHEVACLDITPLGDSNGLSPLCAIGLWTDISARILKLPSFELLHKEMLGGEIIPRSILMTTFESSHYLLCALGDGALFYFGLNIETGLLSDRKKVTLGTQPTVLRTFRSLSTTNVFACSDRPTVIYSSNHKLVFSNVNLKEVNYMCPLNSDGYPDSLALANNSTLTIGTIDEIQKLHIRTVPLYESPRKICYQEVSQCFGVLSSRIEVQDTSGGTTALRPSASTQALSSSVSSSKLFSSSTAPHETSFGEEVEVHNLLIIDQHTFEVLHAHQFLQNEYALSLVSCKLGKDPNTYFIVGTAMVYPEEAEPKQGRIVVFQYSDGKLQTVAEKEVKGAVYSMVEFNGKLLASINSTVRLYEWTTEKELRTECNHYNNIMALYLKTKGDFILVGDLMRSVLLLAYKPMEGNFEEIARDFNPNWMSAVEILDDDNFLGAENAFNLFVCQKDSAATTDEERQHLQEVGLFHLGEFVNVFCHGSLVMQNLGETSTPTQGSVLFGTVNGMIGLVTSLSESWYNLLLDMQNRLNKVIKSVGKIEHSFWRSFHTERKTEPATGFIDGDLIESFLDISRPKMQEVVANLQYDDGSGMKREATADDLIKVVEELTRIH
# Description: Protein lysates were run on Tris-HCl, 1 mm Criterion™ Precast gels (Bio-Rad) or NuPAGE Bis-Tris gels (Novex) gels at a constant voltage. Proteins were transferred onto Immobilon-P transfer membranes (Millipore) at a constant amperage. Before staining with primary antibodies, blots were blocked in 5% non-fat dry milk (Santa Cruz) or BSA in TBST for 30 minutes.
# Secondary antibodies were HRP conjugated Bovine anti-Goat (Jackson ImmunoResearch) and HRP conjugated donkey anti-rabbit (GE Healthcare). Supersignal chemi-luminescent substrate was used for detection. For re-probing, blots were stripped in Restore Western Blot Stripping Buffer (Thermo Scientific), activated in methanol, and re-blocked.
# IKZF1 and IKZF3 [2] = assay: ORF-firefly luciferase reporter assay in 293T cells; type: cell-based, human; details: 1 μM MLN-4924
# IKZF1 and IKZF3 [3] = assay: Immunoblot of IKZF1 and IKZF3 protein in multiple myeloma cells; type: cell-based, human
# Description: The FK2 antibody detects covalently linked ubiquitin.
# Protein lysates were run on Tris-HCl, 1 mm Criterion™ Precast gels (Bio-Rad) at a constant voltage. Proteins were transferred onto Imobilon-P transfer membranes (Millipore) at a constant amperage. Before staining, blots were blocked in 5% BSA in TBST for 30 minutes.
# MM1S cells = assay: CellTiter-Glo luminescent cell viability assay; type: cell-based, human; details: MM1S (sensitive) versus K562 (insensitive) cells, 6 days
# Description: FIGS. 2A, 2B-1, 2B-2 and 2C are provided. […] For a biological replicate SILAC labeling for the two conditions was switched.
# On the respective days, total cellular ATP content was assessed using CellTiter-Glo® Luminescent Cell Viability Assay (Promega) according to the protocol. Luminescence was assessed by a multimode detector DTX880 (Beckman Coulter).
# CSNK1A1 [4] = assay: RQ-PCR of CSNK1A1 mRNA in human cells; type: cell-based
# Description: Relative expression levels were calculated using the ΔΔCT method.
# CBR1 = target: T2, CBR1 (Homo sapiens, UniProt P16152); assay: CBR1 biochemical assays
# T2 sequence (P16152 1-277): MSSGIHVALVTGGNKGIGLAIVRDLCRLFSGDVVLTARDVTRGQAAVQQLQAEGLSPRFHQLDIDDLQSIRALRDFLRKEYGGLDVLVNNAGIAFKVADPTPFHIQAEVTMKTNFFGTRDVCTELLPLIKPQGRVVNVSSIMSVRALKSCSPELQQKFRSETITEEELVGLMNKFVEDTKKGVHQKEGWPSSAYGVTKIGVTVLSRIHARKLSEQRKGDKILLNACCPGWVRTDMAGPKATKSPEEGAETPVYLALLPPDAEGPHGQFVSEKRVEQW
# IKZF3 = assay: Immunoblot of IKZF3 in T cells isolated from mCRBN^I391V knock-in or wild type mice; type: cell-based, mouse; details: 0, 1 or 10 μM
# Source text: IKZF3 protein levels was detected by immunoblot (IB). Actin was included as a protein loading control.
# IRF4 = IRF4 protein and mRNA levels in MM1S cells; type: cell-based, human
# Source text: FIG. 14E is a graph showing IRF4 RNA expression levels after IKZF3 knockdown.
# CSNK1A1 [5] = assay: Immunoblot of CSNK1A1 in murine Baf3 and primary murine AML cells, with or without expressed CRBN variants; type: cell-based, mouse
# Description: CSNK1A1 protein levels were assessed by immunoblot. […] Non-conserved amino acids are indicated by red bars.
# Variants of human and mouse CRBN were cloned into a modified pRSF91 backbone to generate SFFV-CRBN-IRES-GFP-T2A-Puro retroviral constructs. 200,000 Ba/F3 cells were infected with ecotropic retrovirus in the presence of 2 μg/ml polybrene. After 24 hours, 1 μg/ml puromycin (Gibco) was added and cells were selected for 3-4 days. […] Protein lysates were harvested and immunoblotted for CK1α as described above.
# RAB28 = target: T3, RAB28 (Homo sapiens, UniProt P51157); assay: ORF-firefly luciferase reporter assay in 293T cells; type: cell-based; details: 1 μM lenalidomide, 24 hours
# T3 construct: expressed in transfected cells; host or cells: 293T
# Description: The cDNAs of candidate genes, fused to firefly luciferase (FFluc), were expressed in 293T cells.
# The luciferase reporter plasmid CMV-IRES-RenillaLUC-IRES-Gateway-FireflyLUC (11) was a kind gift from William G. Kaelin (Dana-Farber Cancer Institute). Cloning of cDNAs was performed using Gateway LR reaction (invitrogen). […] After an additional 24 hours, dual luciferase assays were performed using the Dual-Glo Luciferase Assay System (Promega) according to the manufacturer's protocol.
smiles,measurement,setting,value
CC(C)C[C@@H](C=O)NC(=O)[C@H](CC(C)C)NC(=O)[C@H](CC(C)C)NC(=O)OCc1ccccc1 [MG132] (Cbz-Leu-Leu-Leu-aldehyde),Effect on lenalidomide-induced decrease in CSNK1A1 protein levels,CSNK1A1 [1],abrogated
NS(=O)(=O)OC[C@@H]1C[C@@H](n2ccc3c(N[C@H]4CCc5ccccc54)ncnc32)C[C@@H]1O [MLN-4924],Effect on lenalidomide-induced decrease in CSNK1A1 protein levels,CSNK1A1 [1],abrogated
same,Effect on lenalidomide-induced decrease of FFluc-fused IKZF3,IKZF1 and IKZF3 [2],prevented the lenalidomide-induced decrease
same,Effect on lenalidomide-induced decrease of endogenous IKZF1 and IKZF3,"IKZF1 and IKZF3 [3]; MM cells, 1 μM MLN-4924",prevented the lenalidomide-induced decrease
"CCCCNC(=O)CCCNc1cccc2c1CN(C1CCC(=O)NC1=O)C2=O (stereo not drawn) [lenalidomide derivative, N-butyl-4-((2-(2,6-dioxopiperidin-3-yl)-1-oxoisoindolin-4-yl)amino)butanamide]",Biological activity / growth inhibition compared with lenalidomide,MM1S cells,"retained the biological activity of lenalidomide, including selective growth inhibition of multiple myeloma cells"
Nc1cccc2c1CN(C1CCC(=O)NC1=O)C2=O (stereo not drawn) [lenalidomide],CSNK1A1 mRNA / RNA expression,CSNK1A1 [4],No significant change; also recorded: did not alter CSNK1A1 mRNA levels
same,Inhibition of CBR1,CBR1,did not interact with CBR1 in direct binding assays or inhibit CBR1
same,IKZF3 degradation in T cells from wild type mice,IKZF3,No IKZF3 degradation was observed
same,IRF4 levels in proteomic analysis,IRF4; 12 hours,only slightly decreased
same,IRF4 mRNA and protein,IRF4; 24 hours and longer,decreased expression of IRF4; also recorded: significant decrease of IRF4 mRNA and protein
same,Degradation of IKZF1 and IKZF3 with CRBN mutant that does not bind lenalidomide,IKZF1 and IKZF3 [3],abrogated degradation of IKZF1 and IKZF3
same,CSNK1A1 degradation in Baf3 cells expressing mCRBN^I391V,CSNK1A1 [5],conferred sensitivity to lenalidomide-induced degradation of CSNK1A1
same,CSNK1A1 protein levels in murine cells over-expressing human CRBN,CSNK1A1 [5],sufficient to confer lenalidomide sensitivity to CSNK1A1; also recorded: reduced CSNK1A1 levels; also recorded: resulted in a decrease of CSNK1A1 protein levels
same,CSNK1A1 protein levels in murine Baf3 cells or primary murine (MLL-AF9) leukemia cells,"CSNK1A1 [5]; unmodified cells, 24 hours",No change; also recorded: did not decrease Csnk1a1 protein levels
same,Luciferase level of FFluc fused to RAB28,RAB28,not altered
